Experimental data taken from patent US6908919B2, “Substituted polycyclic aryl and heteroaryl pyrazinones useful for selective inhibition of the coagulation cascade” (Pharmacia Corporation, priority 1999, dated 2005).
Where two headings read alike, the source gives them in different places.

Experiments:
[1] = biological target: T1, recombinant soluble tissue factor and recombinant human factor VIIa (TF-VIIa) (Homo sapiens, UniProt P08709); test: TF-VIIa Assay; assay type: biochemical
T1 construct: conversion of coagulation factor VII to VIIa by Xa; purchased American Diagnostica, Greenwich Conn; host or cells: VIIa purchased; soluble TF made in house in E. coli
T1 sequence (P08709 61-212 limits assumed): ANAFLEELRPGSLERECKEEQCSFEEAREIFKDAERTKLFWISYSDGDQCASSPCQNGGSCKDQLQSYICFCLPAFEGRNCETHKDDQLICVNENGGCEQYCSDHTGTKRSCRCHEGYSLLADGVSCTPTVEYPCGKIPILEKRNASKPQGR
T1 sequence (P08709 213-466 limits assumed): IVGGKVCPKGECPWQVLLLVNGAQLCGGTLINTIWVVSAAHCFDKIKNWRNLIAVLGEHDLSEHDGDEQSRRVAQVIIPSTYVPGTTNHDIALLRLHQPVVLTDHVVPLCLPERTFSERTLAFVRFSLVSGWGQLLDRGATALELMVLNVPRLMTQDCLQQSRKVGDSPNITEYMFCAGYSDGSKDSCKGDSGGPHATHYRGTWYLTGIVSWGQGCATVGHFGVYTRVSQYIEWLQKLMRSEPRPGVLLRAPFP
T1 sequence (P13726 33-251 partner limits assumed): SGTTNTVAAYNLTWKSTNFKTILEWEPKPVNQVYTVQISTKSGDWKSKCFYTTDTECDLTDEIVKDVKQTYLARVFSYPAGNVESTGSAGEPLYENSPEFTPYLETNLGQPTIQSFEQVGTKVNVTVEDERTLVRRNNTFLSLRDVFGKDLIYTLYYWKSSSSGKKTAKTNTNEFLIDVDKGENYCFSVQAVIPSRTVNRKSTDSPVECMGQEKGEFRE

[2] = biological target: Human factor Xa (Homo sapiens, UniProt P00742); test: Xa Assay; assay type: biochemical; set-up: purchased Enzyme Research Laboratories, South Bend Ind
Sequence of Human factor Xa (P00742 41-179 limits assumed): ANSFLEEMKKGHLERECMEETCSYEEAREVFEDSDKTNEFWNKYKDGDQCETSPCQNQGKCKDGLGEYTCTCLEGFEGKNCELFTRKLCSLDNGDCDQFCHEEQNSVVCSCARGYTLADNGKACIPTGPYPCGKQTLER
Sequence of Human factor Xa (P00742 235-488 limits assumed): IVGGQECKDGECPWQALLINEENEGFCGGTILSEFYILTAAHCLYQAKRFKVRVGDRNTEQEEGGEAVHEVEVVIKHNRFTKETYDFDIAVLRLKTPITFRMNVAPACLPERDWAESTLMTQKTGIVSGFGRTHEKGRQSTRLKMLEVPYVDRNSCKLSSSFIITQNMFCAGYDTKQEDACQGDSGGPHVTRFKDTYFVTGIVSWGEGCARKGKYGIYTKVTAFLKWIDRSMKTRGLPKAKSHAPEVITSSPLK

| SMILES | % Inhibition TF-VIIa (100 µM) ([1]; inhibitor at 100 µM) [%] | % Inhibition Factor Xa (100 µM) ([2]; inhibitor at 100 µM) [%] | other results |
| --- | --- | --- | --- |
| O=C(Cn1c(CCc2ccccc2)c(Cl)nc(NCCN2CCOCC2)c1=O)NCCc1ccncc1 [Example E-0071] | 0 | 0 |  |
| CC(C)Nc1nc(Cl)c(-c2cc(N)cc(C(=O)N(C)Cc3ccccc3)c2)n(CC(=O)NCc2ccc(C(=N)N)cc2)c1=O [Example 128-2] |  |  | IC50 ([1]; read-out: IC50 TF-VIIa): 25.6 nM; inhibition at 100 µM ([2]; at 100 μM inhibitor): 41% |
| O=C(Cn1c(-c2ccc(Cl)cc2)c(Cl)nc(NCc2ccncc2)c1=O)NCCc1ccncc1 [Example E-0024] | 0 | 0 |  |
| O=C(Cn1c(-c2ccc(-c3ccccc3)cc2)c(Cl)nc(NCc2ccccc2)c1=O)NCCc1ccncc1 [Example E-0049] |  |  | % Inhibition TF-VIIa (100 µM) [1]: 2%; % Inhibition Factor Xa (100 µM) [2]: 0% |
| O=C(Cn1c(CCc2ccccc2)c(Cl)nc(NCc2ccncc2)c1=O)NCCc1ccncc1 [Example E-0072] | 0 | 0 |  |
| Cc1c(Cl)nc(NCc2ccccc2)c(=O)n1CC(=O)NCCc1ccncc1 [Example E-0001] | 0 | 1 |  |
| COc1ccc(-c2c(Cl)nc(NCc3ccccc3)c(=O)n2CC(=O)NCCc2ccncc2)cc1 [Example E-0097] | 0 | 3 |  |
| CC(C)Nc1nc(Cl)c(-c2cc(N)cc(C(N)=O)c2)n(CC(=O)NCc2ccc(C(=N)N)cc2)c1=O [Example 128-1] |  |  | IC50 ([1]; read-out: IC50 TF-VIIa): 22 nM; inhibition at 100 µM ([2]; at 100 μM inhibitor): 25% |
| N=C(N)c1ccc(C(O)CCCn2c(-c3cccc(N)c3)c(Cl)nc(NC3CCC3)c2=O)cc1 (stereo not drawn) [Example 143] |  |  | IC50 ([1]; read-out: IC50 TF-VIIa): 43200 nM; inhibition at 100 µM ([2]; at 100 μM inhibitor): 30% |
| Cc1cccc(Cl)c1CNc1nc(Cl)c(-c2ccccc2)n(CC(=O)NCc2ccc(C(=N)N)cc2)c1=O [1512-31] |  |  | % Inhibition TF-VIIa (30 µM) ([1]; at 30 µM inhibitor): 43%; % Inhibition Factor Xa (30 µM) ([2]; at 30 µM inhibitor): 14% |
| O=C(Cn1c(-c2cccc(Cl)c2)c(Cl)nc(NCCc2cccc(Cl)c2)c1=O)NCCc1ccncc1 [Example E-0079] | 0 | 4 |  |
| O=C(Cn1c(-c2ccc(Cl)cc2)c(Cl)nc(NCCc2ccc(Cl)cc2)c1=O)NCCc1ccncc1 [Example E-0028] | 0 | 0 |  |
| N=C(N)c1ccc(CNC(=O)Cn2c(Cc3ccccc3)c(Cl)nc(NCCc3ccccc3)c2=O)cc1 [Example 20] |  |  | % Inhibition TF-VIIa (30 µM) ([1]; at 30 µM inhibitor): 41% @ 30; % Inhibition Factor Xa (30 µM) ([2]; at 30 µM inhibitor): 6% @ 30 |
| Cc1c(Cl)nc(NCCc2ccncc2)c(=O)n1CC(=O)NCCc1ccncc1 [Example E-0006] | 2 | 0 |  |
| COc1ccc(-c2c(Cl)nc(NCCc3ccc(Cl)cc3)c(=O)n2CC(=O)NCCc2ccncc2)cc1 [Example E-0106] | 5 | 3 |  |
| O=C(Cn1c(-c2cccc(Cl)c2)c(Cl)nc(NCCc2ccc(Cl)cc2)c1=O)NCCc1ccncc1 [Example E-0094] | 2 | 2 |  |
| N=C(N)c1ccc(CNC(=O)Cn2c(-c3ccccc3)c(Cl)nc(NCc3cc(F)cc(C(F)(F)F)c3)c2=O)cc1 [1512-29] |  |  | % Inhibition TF-VIIa (30 µM) ([1]; at 30 µM inhibitor): 47%; % Inhibition Factor Xa (30 µM) ([2]; at 30 µM inhibitor): 4% |
| O=C(Cn1c(-c2ccc(-c3ccccc3)cc2)c(Cl)nc(NCCc2ccccc2)c1=O)NCCc1ccncc1 [Example E-0050] |  |  | % Inhibition TF-VIIa (100 µM) [1]: 0%; % Inhibition Factor Xa (100 µM) [2]: 0% |
| COc1ccc(-c2c(Cl)nc(NCCc3cccc(Cl)c3)c(=O)n2CC(=O)NCCc2ccncc2)cc1 [Example E-0035] | 4 | 0 |  |
| O=C(Cn1c(-c2ccc3c(c2)OCO3)c(Cl)nc(NCc2ccncc2)c1=O)NCCc1ccncc1 [Example E-0048] | 0 | 0 |  |
| Cc1c(Cl)nc(NCCc2cccnc2)c(=O)n1CC(=O)NCCc1ccncc1 [Example E-0005] | 0 | 0 |  |
| CC(CNc1nc(Cl)c(-c2cccc(N)c2)n(CC(=O)NCc2ccc(C(=N)N)cc2)c1=O)C(=O)O (stereo not drawn) [Example 129] |  |  | IC50 ([1]; cell adds 'at 100 μM'): 58 nM; inhibition at 100 µM ([2]; at 100 μM inhibitor): 22% |
| CC(C)Nc1nc(Cl)c(-c2cccc([N+](=O)[O-])c2)n(CC(=O)NCc2ccc(C(N)=NO)cc2)c1=O [Example 61] |  |  | % Inhibition TF-VIIa (30 µM) ([1]; at 30 µM inhibitor): 1%; % Inhibition Factor Xa (30 µM) ([2]; at 30 µM inhibitor): 0% |

| SMILES | % Inhibition TF-VIIa (100 µM) ([1]; inhibitor at 100 µM) [%] | % Inhibition Factor Xa (100 µM) ([2]; inhibitor at 100 µM) [%] | other results |
| --- | --- | --- | --- |
| COc1ccc(-c2c(Cl)nc(NCCc3cccnc3)c(=O)n2CC(=O)NCCc2ccncc2)cc1 [Example E-0037] | 0 | 0 |  |
| O=C(Cn1c(Cc2ccccc2)c(Cl)nc(NCCc2cccnc2)c1=O)NCCc1ccncc1 [Example E-0061] | 0 | 0 |  |
| CC(CC(=O)O)Nc1nc(Cl)c(-c2cccc(N)c2)n(CC(=O)NCc2ccc(C(=N)N)cc2)c1=O (stereo not drawn) [Example 130] |  |  | IC50 ([1]; read-out: IC50 TF-VIIa, cell printed 'at 100 μM' without %, cell adds 'at 100 μM'): 180 nM; % Inhibition Factor Xa at 100 μM ([2]; at 100 μM inhibitor): 24% at 100 μM |
| COc1ccc(-c2c(Cl)nc(NCCc3ccc(Cl)cc3)c(=O)n2CC(=O)NCCc2cccnc2)cc1 [Example E-0107] | 4 | 6 |  |
| O=C(Cn1c(-c2ccc(Cl)cc2)c(Cl)nc(NCCc2cccnc2)c1=O)NCCc1ccncc1 [Example E-0021] | 0 | 1 |  |
| O=C(Cn1c(-c2ccccc2)c(Cl)nc(NCCc2cccc(Cl)c2)c1=O)NCCc1ccncc1 [Example E-0011] | 0 | 0 |  |
| O=C(Cn1c(Cc2ccccc2)c(Cl)nc(NCCc2ccncc2)c1=O)NCCc1ccncc1 [Example E-0062] | 0 | 0 |  |
| O=C(Cn1c(-c2ccc(-c3ccccc3)cc2)c(Cl)nc(NCCN2CCOCC2)c1=O)NCCc1ccncc1 [Example E-0055] |  |  | % Inhibition TF-VIIa (100 µM) [1]: 0%; % Inhibition Factor Xa (100 µM) [2]: 0% |
| O=C(Cn1c(-c2ccc3c(c2)OCO3)c(Cl)nc(NCc2ccccc2)c1=O)NCCc1ccncc1 [Example E-0041] | 0 | 0 |  |
| N=C(N)c1ccc(CNC(=O)Cn2c(-c3ccc(-c4ccccc4)cc3)c(Cl)nc(NCc3ccncc3)c2=O)cc1 [1471-67] |  |  | % Inhibition TF-VIIa (30 µM) ([1]; at 30 µM inhibitor): 12%; % Inhibition Factor Xa (30 µM) ([2]; at 30 µM inhibitor): 16% |
| O=C(Cn1c(-c2ccc3c(c2)OCO3)c(Cl)nc(NCCc2cccnc2)c1=O)NCCc1ccncc1 [Example E-0045] | 0 | 0 |  |
| COc1ccc(-c2c(Cl)nc(NCCN3CCOCC3)c(=O)n2CC(=O)NCc2ccc(C(=N)N)cc2)cc1 [1471-36] |  |  | % Inhibition TF-VIIa (30 µM) ([1]; at 30 µM inhibitor): 11%; % Inhibition Factor Xa (30 µM) ([2]; at 30 µM inhibitor): 6% |
| NC1=NCCSc2cc(CNC(=O)Cn3c(-c4cccc(N)c4)c(Cl)nc(NC4CCC4)c3=O)ccc21 [Example 154] |  |  | inhibition at 30 µM ([1]; 1 h, at 30 µM inhibitor): 7%; % Inhibition Factor Xa (30 µM) ([2]; at 30 µM inhibitor): 6% |
| Nc1cccc(-c2c(Cl)nc(NC3CCC3)c(=O)n2CC(=O)NCCc2ccccc2)c1 [Example 89] |  |  | % Inhibition TF-VIIa (30 µM) ([1]; at 30 µM inhibitor): 5% @ 30; % Inhibition Factor Xa (30 µM) ([2]; at 30 µM inhibitor): 5% @ 30 |
| COc1ccc(-c2c(Cl)nc(NCCc3ccncc3)c(=O)n2CC(=O)NCCc2ccncc2)cc1 [Example E-0038] | 0 | 0 |  |
| O=C(Cn1c(-c2cccc(Cl)c2)c(Cl)nc(NCCc2cccc(Cl)c2)c1=O)NCCc1ccncc1 [Example E-0091] | 1 | 4 |  |
| O=C(Cn1c(Cc2ccccc2)c(Cl)nc(NCc2ccccc2)c1=O)NCCc1ccncc1 [Example E-0057] | 0 | 6 |  |
| O=C(Cn1c(-c2ccc(Cl)cc2)c(Cl)nc(NCCc2cccnc2)c1=O)NCCc1ccncc1 [Example E-0029] | 0 | 0 |  |
| N=C(N)c1ccc(CNC(=O)C(Cc2ccccc2)n2c(-c3ccccc3)c(Cl)nc(NCCc3cccc(Cl)c3)c2=O)cc1 (stereo not drawn) [Example 1517-20] |  |  | % Inhibition TF-VIIa (30 µM) ([1]; at 30 µM): 22%; % Inhibition Factor Xa (30 µM) ([2]; at 30 µM): 0% |
| COc1ccc(-c2c(Cl)nc(NCCc3ccccc3)c(=O)n2CC(=O)NCCc2ccncc2)cc1 [Example E-0034] | 0 | 6 |  |
| N=C(N)c1ccc(CNC(=O)Cn2c(-c3ccccc3)c(Cl)nc(NC3Cc4ccccc4C3)c2=O)cc1 [1507-08] |  |  | % Inhibition TF-VIIa (30 µM) ([1]; at 30 µM inhibitor): 7%; % Inhibition Factor Xa (30 µM) ([2]; at 30 µM inhibitor): 1% |
| O=C(Cn1c(-c2cccc(Cl)c2)c(Cl)nc(NCc2ccccc2)c1=O)NCCc1ccncc1 [Example E-0073] | 0 | 2 |  |
